Source: ChEMBL document CHEMBL5724709, “EUbOPEN Chemogenomics Library - IncuCyte” (2024)

Tests used:
Type in all cases: toxicity, cell-based
Fibroblast = test: Incucyte cell viability with human fibroblast; details: 24 h, 10 µM, compound concentration 10 uM
HEK-293T = test: Incucyte cell viability with HEK293T; details: human, 24 h, 10 µM, compound concentration 10 uM
U2OS = test: Incucyte cell viability with U2OS; details: human, 24 h, 10 µM, compound concentration 10 uM
Also: unitless GR value; below 1 slowed growth and below 0 cell loss.

| Structure (SMILES) | Growth Rate (Fibroblast; replicate number 1) | Growth Rate (Fibroblast; replicate number 2) | Growth Rate (HEK-293T; replicate number 1) | Growth Rate (U2OS; replicate number 1) | Growth Rate (U2OS; replicate number 2) | Growth Rate (HEK-293T; replicate number 2) |
| --- | --- | --- | --- | --- | --- | --- |
| COc1cc(Oc2ccnc3cc(OC)c(OC)cc23)ccc1NC(=O)NC(C)c1nccs1 (stereo unspecified) | 0.18 | -0.01 | 1 | 0.56 | 0.82 |  |
| CCN1C(C)(C)CC(Oc2ccc(C(=O)Nc3ccc(NC(=O)Nc4cc(C(C)(C)C)on4)cc3)nc2)CC1(C)C | 0.74 | 0.78 | -0.29 | 0.51 | 0.66 | 0.58 |
| Cc1cc(OCc2nnc(SC3CCCC3)n2-c2cccnc2)ccc1-c1ccc(S(C)(=O)=O)cc1 | -0.37 | -0.82 | -0.22 | -0.5 | -0.4 |  |
| N=C(N)N/N=C/c1cccc(Cl)c1Cl | 0.46 | 0.86 | 0.5 | 0.24 | 0.53 | 0.8 |
| O=C(Nc1ccc2[nH]nc(-c3ccncc3)c2c1)[C@@H]1CCN(CC(=O)N2CCN(c3ccc(-c4ncccn4)cc3)CC2)C1 | 1 |  | -0.08 | 0.65 | 1 | -0.01 |
| O=C(C1CC1)N1CC[C@@H](Cc2n[nH]c(=O)n2-c2ccc(-c3ccc4occc4c3)cc2)C1 | 0.43 | 0 | 0.73 | 0.54 | 0.69 | 1 |
| O=C(NO)c1cnc(NC2(c3ccccc3)CC2)nc1 | -0.29 | 0.31 | 0.73 | -0.38 | -0.13 | 0.94 |
| O=C(c1ccc2c(ccn2-c2ccc(F)cc2)c1)N1CC(N2CCN(C(=O)c3nccs3)CC2)C1 | 0.6 | 1 | 0.76 | 0.99 | 0.91 | 0.97 |
| CSc1cccc(Nc2ncc3cc(-c4c(Cl)cccc4Cl)c(=O)n(C)c3n2)c1 | -0.25 | -0.52 | -0.41 | -0.64 | -0.15 | 0.24 |
| Cc1cc(Cn2c(=O)n(Cc3cnc(C)s3)c(=O)c3cc(S(=O)(=O)NC4(C)CC4)ccc32)n(C)n1 | 0.47 | 0.68 | 0.6 | 0.64 | 0.54 | 0.74 |
| C[C@@H]1CN(c2ncc(Cl)c(Nc3ccc4c(c3)n(CCC(C)(C)O)c(=O)n4C)n2)C[C@H](C)C1(F)F | 0.91 | -0.13 | 0.18 | 0.72 | 0.69 | 0.21 |
| CC(C)(O)c1ccc(N2Cc3c(ccnc3-c3ccc(F)cc3OCC(F)(F)F)C2=O)cc1 | 0.68 | 0.44 | 0.87 | 0.05 | 1 | 1 |
| [2H]C([2H])([2H])C1(C([2H])([2H])[2H])Cn2nc(-c3ccc(F)cn3)c(-c3ccnc4[nH]ncc34)c2CO1 | 0.73 | 1 | 0.81 | 0.32 | 0.8 | 0.89 |
| C[C@@H]1CN(c2nccc(Nc3ccc4c(c3)n(CCC(C)(C)O)c(=O)n4C)n2)C[C@H](C)C1(F)F | 0.74 | 1 | 0.03 | 0.72 | 0.76 | 0.19 |
| O=C(NCCCn1ccnc1)c1cc2nc(-c3ccccc3)cc(-c3ccccc3)n2n1 | 0.96 | 1 | 0.48 | 0.13 | 0.75 | 0.98 |
| Cc1ncsc1-c1ccc(CNC(=O)[C@@H]2C[C@@H](O)CN2C(=O)[C@@H](NC(=O)COCCOCCOc2ccc(-c3ccc4ncnc(Nc5ccc(OCc6cccc(F)c6)c(Cl)c5)c4c3)cc2)C(C)(C)C)cc1 | 1 | 0.62 | 1 | 1 | 0.6 |  |
| COc1cc(-c2cn(C)c(=O)c3cnccc23)cc(OC)c1CN(C)CC(=O)NCCOCCOCCNc1cccc2c1C(=O)N(C1CCC(=O)NC1=O)C2=O (stereo unspecified) | 0.26 | 0.72 | 0.8 | 0.78 | 0.96 | 0.98 |
| C[C@H](NC(=O)c1cn(C2(C#N)CC2)cn1)C(=O)Nc1nc(-c2cccc(-c3ccn(C)n3)c2)cs1 | 0.43 | 1 | 0.9 | 0.33 | 1 | 0.86 |
| CCn1c(=O)c(C)cn(Cc2nnc(-c3ccc(F)c(O)c3F)s2)c1=O | 0.03 | 1 | 1 | 1 | 0.92 | 0.97 |
| COCCOCCn1nc2c(c1C)-c1c(Cl)ccc3c1c(C)c(C(=O)O)n3CCCOc1cc(cc3c(F)c(Cl)ccc13)CCc1cc(nn1C)CSC2 | -0.35 | -0.82 | 0.27 | 0.15 | 0.75 | 0.51 |
| Cc1cc(C(=O)N2CCN(C3CN(C(=O)c4ccc(-c5ccccc5)cc4)C3)CC2)no1 | 0.37 | 0.27 | 0.61 | 0.79 | 1 | 0.63 |
| CCn1c(=O)c(C)cn(Cc2nnc(-c3ccc(F)c(OC)c3F)s2)c1=O | 0.35 | 1 | 0.83 | 0.26 | 1 | 0.9 |
| COC[C@H](NC(=O)c1ccn(S(C)(=O)=O)c1)C(=O)Nc1nc(-c2cccc(-c3ccn(C)n3)c2)cs1 | 0.89 | 1 | 1 | 0.77 |  |  |
| CCC[C@H]1CNCc2c1[nH]c(=O)c(C#N)c2N1CCC2(CC1)CC2.Cl | -0.11 | 0.09 | 0.75 | 0.97 | 1 | 0.9 |
| CCC[C@@H]1CNCc2c1[nH]c(=O)c(C#N)c2N1CCC2(CC1)CC2.Cl | 0.62 | 0.92 | 0.66 | 0.72 | 0.8 | 0.97 |
| Cn1ncc2c(-c3c(-c4ccc(F)cn4)nn4c3COC(C)(C)C4)ccnc21 | 0.66 | 1 | 0.85 | 0.55 | 0.95 | 0.8 |
| O=C(c1ccc2[nH]ccc2c1)N1CCN(S(=O)(=O)c2ccc3[nH]c(=O)oc3c2)CC1 | 0.24 | 1 | 0.91 | 0.5 | 0.82 | 1 |
